In paper PMC2873402, “Discovery of High-Affinity Protein Binding Ligands – Backwards” (PLoS ONE, 2010):
Where two headings read alike, the source gives them in different places. Bridge positions count the residues as written; N and C are the ends. Ends that are not written are not given here. I, II: the chains in the order shown. * marks the point of attachment. StBu = CC(C)(C)S*

Key:
[1] = system: GRP58 (protein disulfide-isomerase A3); assay: SPR screening against immobilized GRP58; format: binding; conditions: 100 nM synbody, Biacore T-100, CM5 amine coupling, 25°C immobilization, 90 s association, 240 s dissociation
Description: The synbody (100nM concentration) was screened by Surface Plasmon Resonance (SPR) against immobilized AKT1 and GRP58 on a Biacore T-100 SPR. The synbody appeared to have high affinity for AKT1 and low affinity for GRP58 (Figure S2). To accurately determine the binding kinetics of the synbody-AKT1 complex, several concentrations of synbody were injected over a low-density surface of biotin-labeled AKT1 captured on a Neutratvidin SPR chip using a Biacore A-100.
SPR screening of the synbody against AKT1 and GRP58 was performed on a Biacore T-100 (GE Healthcare, Piscataway, NJ, USA). The series S sensor chip CM5, amine coupling reagents and HBS-EP were obtained from GE Healthcare. A standard amine immobilization protocol was performed at 25°C using NaHCO3 (10mM in 150mM NaCl, pH 4.5) as the immobilization buffer. The CM-5 dextran chip was activated by a 10 minute injection of a freshly prepared 1∶1 solution of 400 mM 1-ethyl-3-(3-dimethylaminopropyl)-carbodimide (EDC): 100 mM N-hydroxysuccimide (NHS) in water. The NHS-carboxy groups of the dextran surface were treated with a solution of AKT1 or GRP58 (25 µg/ml) in sodium acetate (pH 5.0) for 8 mins at a flow rate of 10 µl/min. Any residual active sites were then quenched by a 5 min pulse of ethylene diamine (1M, pH 8.5). […]

AKT3 = assay: IP of AKT isoforms spiked into A549 lysate: AKT3; format: binding; conditions: 250 ng of each isoform in 500 µg A549 lysate, Western Blot
Description: This apparent specificity was investigated further by performing an IP using 250 ng of each isoform of AKT spiked into 500 µg of A-549 cell lysate.
(§1) For all IP experiments, either a 1 µM or 250 nM solution of biotin-conjugated synbody was captured on 20 µL of streptavidin coated paramagnetic M-280 Dynabeads (Life Technologies) according to the manufacturers protocol. Synbody coated beads were washed five times with 1 mL of 100 mM phosphate buffered saline containing 0.05% Tween-20 (PBST) and incubated overnight at 4°C with shaking in the desired amount of target protein in A549 cell lysate. For Kd determination experiments, serial dilutions of AKT1 or ABL1 were prepared in binding buffer. After binding, beads were washed five times with 1 mL of PBST and heated at 70°C in 20 µL of 1× LDS loading buffer (Invitrogen) for 10 minutes. The samples were analyzed by SDS-PAGE gel with Western Blot detection using the appropriate antibody and imaged on a GE Healthcare Typhoon Trio.

AKT1 [2] = biological target: T1, AKT1 (Homo sapiens, UniProt P31749); assay: SPR determination of Kd / binding kinetics on AKT1; parameters: purchased Life Technologies
Description: To a solution of AKT1 (25µg, 4.16×10^−10 moles, 1.0 equiv.) in 50mM Na2CO3 in 150mM NaCl, pH 9.0 (200 µl), was added a solution of NHS-LC-LC-Biotin (Thermo Scientific) (9.4 µl, 8.32×10^−10 moles, 2.0 equiv.) in DMSO. The reaction was kept on ice at 0°C with frequent agitation for 2 hours, before the mixture was transferred to a 10 kDa Millipore Microcon filter and diluted with HBS-N (200 µl). The excess biotin was removed by spinning the filter at 12,000 G until the volume on top of the filter had been reduced to 0.25 the original volume. The retentate was washed with an additional 200 µl of HBS-N and spun for a further 15 minutes. The filter was then flipped over and the protein recovered (15 µg, 60%). After filtration, an appropriate volume of 10× HBS-N was added to the sample to increase the HBS-N concentration to a 1× equivalent.
Determination of the binding kinetics of the synbody on AKT1 was performed on a Biacore A-100. The series S sensor chip CM5, amine coupling reagents and HBS-EP were obtained from GE Healthcare. A standard amine immobilization protocol was performed at 25°C using NaHCO3 (10mM in 150mM NaCl, pH 4.5) as the immobilization buffer. Spots 1,2 and 3 on each of the four flow cells of the CM-5 dextran chip were activated by a 10 minute injection of a freshly prepared 1∶1 solution of 40 0mM EDC : 100 mM NHS in water. The NHS-carboxy groups of spot 1 of the dextran surface were treated with a solution of neutravidin (50 µg/ml) in sodium acetate (pH 5.0) for 8 mins at a flow rate of 10 µl/min. Any residual active sites were then quenched by a 5 min pulse of ethylene diamine (1M, pH 8.5). Similarly neutravidin was coupled to spots 2 and 3 via a 12 and 16 min injection cycle respectively, followed by quenching. An additionally 7 min injection of ethylene diamine was then pulsed over spots 1–3 to ensure no activated sites remained. […]
For high-resolution kinetics, biotin-tagged AKT1 was captured in multiple spot densities with Rmax's ranging from 20–100 RUs. […] Association and dissociation were monitored for 3 and 16 min, respectively. […]

AKT1 [3] = biological target: T1, AKT1; assay: IP of endogenous AKT1 from A549 lysate; format: binding; parameters: N-terminal vector leader of pEXP5-NT (6xHis + TEV site by own knowledge of the vector); made in house; host or cells: Expressway Mini Cell-Free Expression System (in vitro translation); conditions: un-stimulated A549 lysate, 25 pmols synbody
Description: As a preliminary test of specificity, 200 ng of AKT1 (33.2 nM) was spiked into increasing amounts of cell lysate prepared from un-stimulated A549 lung epithelial cells and streptavidin beads coated with 25 pmols of synbody (7.6∶1 synbody-to-AKT1 ratio) were used to pull down AKT1 using the same IP procedure and Western Blot protocol as before.
as §1

T1 sequence (P31749 whole entry): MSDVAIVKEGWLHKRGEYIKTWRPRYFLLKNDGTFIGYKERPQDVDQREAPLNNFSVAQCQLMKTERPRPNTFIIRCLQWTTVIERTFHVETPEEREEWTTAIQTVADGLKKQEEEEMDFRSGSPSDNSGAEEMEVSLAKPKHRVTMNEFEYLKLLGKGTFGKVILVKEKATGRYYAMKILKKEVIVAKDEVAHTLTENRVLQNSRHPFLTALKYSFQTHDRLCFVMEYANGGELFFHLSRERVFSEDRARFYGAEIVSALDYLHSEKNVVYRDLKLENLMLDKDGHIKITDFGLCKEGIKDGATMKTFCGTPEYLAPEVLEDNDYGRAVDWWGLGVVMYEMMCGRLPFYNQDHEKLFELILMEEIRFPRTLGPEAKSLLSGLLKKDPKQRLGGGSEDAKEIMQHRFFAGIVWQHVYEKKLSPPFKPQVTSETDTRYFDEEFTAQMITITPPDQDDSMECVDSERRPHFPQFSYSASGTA

For “I: AHKVVPQRQIRHAYNRYGSGKC(StBu)-NH2 / II: FRGWAHIFFGPHVIYRGGSG (amide I:21-II:C) [synbody]”, the “affinity for GRP58 by SPR screening” value [1] was “low affinity”, the “IP of AKT3 (isoform selectivity)” value (AKT3) was “relatively little” and the kon (AKT1 [2]; Biacore A-100, biotin-labeled AKT1 on neutravidin, synbody 25 nM to 0.78 nM, 1:1 binding model, read-out: association rate, ka) was 200000 M⁻¹ s⁻¹. For the same substance, the koff (AKT1 [2]; Biacore A-100, biotin-labeled AKT1 on neutravidin, synbody 25 nM to 0.78 nM, 1:1 binding model, read-out: dissociation rate, kd) was 0.0003 s⁻¹, the koff (AKT1 [2]; Figure 3A, 12.5 and 6.25 nM synbody, Biacore A-100, 1:1 binding model, read-out: koff) was 0.000295 s⁻¹ and the “precipitation of endogenous AKT1” value (AKT1 [3]) was “precipitates the very low level endogenous AKT1 from the un-stimulated cell lysate”.
